This is an account of results in PubChem BioAssay (NCI).

What all share (assay): NCI anticancer screen, dose series, 48 h
Experiment [1] has as its system IGROV1 ovarian.
The subject of experiment [2] is MDA-MB-435.
Experiment [3] has as its system NCI-H460 lung.
Experiment [4] relates to NCI-H522 lung.
The subject of experiment [5] is NCI/ADR-RES ovarian.
Experiment [6] concerns OVCAR-5 ovarian.
Experiment [7] has as its system SN12C renal.
Experiment [8] deals with T-47D breast.
The subject of experiment [9] is TK-10 renal.
Experiment [10] concerns UACC-62 melanoma.

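Cultured in 96-well plates, cells were exposed to test compound for 48 hours across five concentrations. TGI is the concentration that stops growth completely.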

As for `OC1(C2(c3ccc(Cl)cc3)CCCC2)c2ccccc2C2=NCCN21` (stereo not given), the TGI amounted to 26.8 µM in experiment [1]; 26.7 µM in experiment [2]; 29 µM in experiment [3]; 32.3 µM in experiment [4]; 33.2 µM in [5]; 29.5 µM in [6]. Besides, the TGI stood at 31.5 µM in experiment [7], 22 µM in experiment [8], 28.9 µM in experiment [9] and 29.7 µM in [10].
`C=COC(=O)N1C2CCCC(Cl)(C(C)=O)C1CC2` (stereo not given): the TGI in experiment [1], in experiment [2], in [3], in experiment [4], in experiment [5] and in [6] was above 100 µM in each case. Besides, the TGI in experiment [7], in experiment [8], in experiment [9] and in experiment [10] was above 100 µM throughout.
For the compound `CCSc1nc(C)nc2c1sc1nc3ccccc3n12`, the TGI in experiment [1], in [2], in experiment [3], in experiment [4], in [5] and in experiment [6] was above 100 µM each time. Besides, the TGI in [7], in experiment [8], in [9] and in [10] was above 100 µM throughout.
Turning to `COc1cc2c3c(c1OC)C(=O)C(=O)C1=C3N(CCC1)CC2`, the TGI in [1] is above 100 µM; in experiment [2] it was 53.8 µM; in experiment [3] it was 37.5 µM; in experiment [4] it was 72.2 µM; in experiment [5] it was above 100 µM; in experiment [6] it was above 100 µM. Besides, the TGI is above 100 µM in experiment [7], above 100 µM in [8], above 100 µM in experiment [9] and 42 µM in experiment [10].
As for `O=C(Nc1nccs1)NS(=O)(=O)n1cnc2ccccc21`, the TGI in experiment [1], in [2], in experiment [3], in [4], in experiment [5] and in [6] was above 100 µM throughout. The TGI in [7], in experiment [8], in experiment [9] and in experiment [10] was above 100 µM throughout.
On to `COc1cc2c3cc1Oc1c(OC)c(OC)cc4c1C(Cc1ccc(O)c(c1)-c1cc(ccc1OC)CC3N(C)CC2)N(C)CC4` (stereo not given), for which the TGI in experiment [1] is 63.7 µM; in [2], 61.5 µM; in [3] it was 51.2 µM; in experiment [4], 31.1 µM; in [5], 73.9 µM; in experiment [6] it was above 100 µM. Further, the TGI in experiment [7] is 42.7 µM; in experiment [8], 68.9 µM; in [9] it was above 100 µM; in experiment [10] it was 57.2 µM.
Take `COc1ccc2[nH]c3c(C)c4ncccc4c(C)c3c2c1`: the TGI is above 10 µM in experiment [1]; 3.21 µM in experiment [2]; 5.46 µM in experiment [3]; above 10 µM in experiment [4]; above 10 µM in [5]; above 10 µM in experiment [6]. Also, the TGI in experiment [7], in experiment [8], in experiment [9] and in experiment [10] was above 10 µM in each case.
Take `CCOC1=NC(C(F)(F)F)(C(F)(F)F)N=C(N2CCCCC2)O1`: the TGI in experiment [1], in [2], in experiment [3], in experiment [4], in experiment [5] and in experiment [6] was above 100 µM throughout. Moreover, the TGI in experiment [7], in [8], in experiment [9] and in [10] was above 100 µM throughout.
On to `OC[C@@H](O)[C@H](O)[C@@H](O)/C=N/Nc1ccc(Cl)nn1`, for which the TGI in experiment [1], in [2], in [3], in [4], in [5] and in experiment [6] was above 100 µM throughout. Moreover, the TGI in [7], in experiment [8], in experiment [9] and in experiment [10] was above 100 µM each time.
With `CN(C)c1c(C2CC(O)C(CO)O2)c(=O)c1=O` (stereo not given), the TGI in experiment [1], in experiment [2], in experiment [3], in experiment [4], in experiment [5] and in experiment [6] was above 100 µM each time. The TGI in experiment [7], in [8], in [9] and in [10] was above 100 µM in each case.
For the compound `Clc1nc(Nc2nc3ccccc3[nH]2)nc(Cl)c1-c1ccccc1`, the TGI in experiment [1] was 54.2 µM; in experiment [2], above 100 µM; in experiment [3], 28.7 µM; in experiment [4], 42.5 µM; in [5], 92.7 µM; in [6], 59.6 µM. Also, the TGI is 31.1 µM in experiment [7], above 100 µM in experiment [8], above 100 µM in [9] and 36.9 µM in experiment [10].
For the compound `COc1ccc(NC(=O)CC(=O)N2N=C(C)C(N=Nc3ccc(C(=O)O)cc3)C2=O)cc1` (stereo not given), the TGI in [1], in [2], in experiment [3], in experiment [4], in experiment [5] and in [6] was above 100 µM throughout. Moreover, the TGI in experiment [7], in experiment [8], in [9] and in experiment [10] was above 100 µM throughout.
As for `CS(=O)(=O)CCC(N)P(=O)(O)O` (stereo not given), the TGI in experiment [1], in experiment [2], in experiment [3], in experiment [4], in experiment [5] and in experiment [6] was above 100 µM in each case. The TGI in [7], in experiment [8], in [9] and in [10] was above 100 µM each time.
Regarding `C[C@H](CO)C1=CC(C#C[Si](C)(C)C)N(C(=O)Oc2ccccc2)c2ccccc21` (stereo not given in full), the TGI in [1] came to 29.9 µM; in [2], 7.25 µM; in experiment [3], 28.6 µM; in experiment [4], 15.7 µM; in experiment [5] it was 12.6 µM; in experiment [6], 30.5 µM. Besides, the TGI in experiment [7] is 25.5 µM; in [8], 38.1 µM; in experiment [9], 31.4 µM; in [10] it was 19.9 µM.
